Data on 15 compounds can be found in patent US20250320213A1, “Nitrogen-Containing Heterocyclic Compounds” (Pfizer Inc., priority 2024, published 2025).

In general, IC50 refers to the concentration that inhibits the measured activity by half. Low readings indicate greater potency in that assay, high ones weaker potency in that assay. By EC50 is commonly meant the concentration giving half of the maximal effect.

Assay [1] deals with CCL17 secretion in peripheral human whole blood. Put plainly: Human Whole Blood (HWB) CCL17 TR-FRET Assay (IL-13 stimulated CCL17 secretion). The assay is classed as cell-based. The protocol:
The IC50 (half-maximal concentration required for inhibition) of compounds for the inhibition of CCL17 secretion in peripheral human whole blood, stimulated through the IL-13-IL-13 receptor/IL-4 receptor pathway was evaluated with a TR-FRET sandwich ELISA CCL17 (TARC) Assay Kit (Bioauxilium).
Test compounds (solubilized and serially diluted in DMSO, in an 11 point, 3-fold dilution series in duplicate) were spotted, 80 nL per well, into a 384 well v-bottom polypropylene plate. Human whole blood was collected from a peripheral vein, 714 units of sodium heparin was added for every 50 mL of blood collected. Sixty μL per well of blood was added to the compound plate. The blood plate was incubated for two hours at 37° C. After two hours, CCL17 production was stimulated with the addition of 20 μL per well of IL13 (R&D Systems) in HBSS with calcium and magnesium, with a final concentration of 10 ng/mL IL13. The plate containing blood, compound, and IL-13 was incubated at 37° C. for 48 hours, to allow for CCL17 production. After 48 hours, the plate was centrifuged at 1,500 revolutions per minute (RPM) for 7 minutes, with no braking. The CCL17 TR-FRET Assay Kit detection reagent was prepared according to kit instructions and 4 μL per well of the antibody cocktail was added to a 384-well white low volume non-binding coated plate (Corning). Sixteen μL of serum from the centrifuged blood plate was transferred to the detection plate containing the TR-FRET antibody cocktail. The plate was centrifuged briefly, then covered and incubated 16 hours at room temperature. The plate was then read on an EnVision 2105 multilabel reader (PerkinElmer) with settings for TR-FRET Ratio=10,000×(fluorescence intensity 665 nm/fluorescence intensity 615 nm).

For assay [2], the target named is T1, STAT6 (Homo sapiens, UniProt P42226).
T1 construct: stably transfected HaCaT keratinocyte cell line, which expresses NanoLuc luciferase reporter gene under the transcriptional control of the STAT6 responsive promoter; endogenous in cells; host or cells: HaCaT keratinocyte reporter cell line (stably transfected with a NanoLuc reporter)
T1 sequence (P42226 1-847): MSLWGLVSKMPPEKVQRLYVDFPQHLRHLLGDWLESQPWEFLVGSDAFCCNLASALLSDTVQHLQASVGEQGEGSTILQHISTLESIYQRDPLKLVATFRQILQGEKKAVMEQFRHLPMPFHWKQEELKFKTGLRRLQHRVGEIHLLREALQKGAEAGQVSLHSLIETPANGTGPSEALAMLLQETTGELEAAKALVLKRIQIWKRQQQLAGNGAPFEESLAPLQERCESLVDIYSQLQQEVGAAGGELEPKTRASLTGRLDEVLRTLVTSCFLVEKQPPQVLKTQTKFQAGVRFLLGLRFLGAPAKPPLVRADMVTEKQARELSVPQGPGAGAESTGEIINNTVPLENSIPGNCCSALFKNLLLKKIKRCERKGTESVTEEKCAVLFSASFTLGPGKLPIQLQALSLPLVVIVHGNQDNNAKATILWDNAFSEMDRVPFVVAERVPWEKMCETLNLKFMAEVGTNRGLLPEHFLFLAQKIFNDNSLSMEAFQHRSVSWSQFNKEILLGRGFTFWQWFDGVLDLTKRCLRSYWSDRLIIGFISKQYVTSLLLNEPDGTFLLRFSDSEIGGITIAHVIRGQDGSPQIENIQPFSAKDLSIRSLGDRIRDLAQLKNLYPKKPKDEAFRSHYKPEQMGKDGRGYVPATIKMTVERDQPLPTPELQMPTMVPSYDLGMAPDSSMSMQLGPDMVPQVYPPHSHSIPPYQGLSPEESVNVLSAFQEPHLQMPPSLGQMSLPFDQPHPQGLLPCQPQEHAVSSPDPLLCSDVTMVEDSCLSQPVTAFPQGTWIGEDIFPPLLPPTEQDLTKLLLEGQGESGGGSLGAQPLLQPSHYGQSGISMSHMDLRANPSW
Put plainly: STAT6 Reporter Luciferase Assay (IL-13 stimulated HaCaT keratinocyte NanoLuc reporter cells). The class given is cell-based. The note with it: read-out: Reporter EC50. Summed up:
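HaCaT IL-13Ra2-promoter NanoLuc reporter; cpd 2 h 37 °C in DMEM/2% HI FBS; IL-13 0.12 nM final, 4 h; Nano-Glo luminescence.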

[3] abbreviates: human whole blood, IL-13 stimulated, 48 hours.
[4] abbreviates: IL-13 stimulated HaCaT STAT6 NanoLuc reporter cells.
Where [5] appears, read: Homo sapiens, 48 h, human whole blood, IL-13 stimulated.
[6] abbreviates: Homo sapiens, 48 h, inhibition of CCL17 secretion in human whole blood, 10 ng/mL IL13, 48 hours.
[7] abbreviates: STAT6 NanoLuc luciferase reporter, IL-13 stimulated HaCaT keratinocyte cells.

Like-named read-outs stand apart in the source and are kept apart here.

As for `CC(C)C1CN(c2ccc(C(=O)N(C)C)cn2)Cc2c(C(=O)NCc3ccc(NC(=O)N(C)C)cc3)nn(C)c21` (single isomer, unassigned) [Example 271, rel-(R or S)-5-(5-(dimethylcarbamoyl)pyridin-2-yl)-N-(4-(3,3-dimethylureido)benzyl)-7-isopropyl-1-methyl-4,5,6,7-tetrahydro-1H-pyrazolo[4,3-c]pyridine-3-carboxamide], the IC50 in assay [1] (setting [3]) stood at 0.18 µM. The 50% effective concentration (EC50) in assay [2] (setting [4]) worked out at 0.011 µM.
In assay [1] (setting [5]), `CN(C)C(=O)Nc1ccc(CNC(=O)c2nn(CCC#N)c3c2CN(c2ccc(C(=O)N(C)C)cn2)CC3)cc1` [Example 308, 1-(2-cyanoethyl)-5-(5-(dimethylcarbamoyl)pyridin-2-yl)-N-(4-(3,3-dimethylureido)benzyl)-4,5,6,7-tetrahydro-1H-pyrazolo[4,3-c]pyridine-3-carboxamide] yielded an IC50 of 0.718 µM. The EC50 in assay [2] (setting [4]) turned out to be 0.287 µM.
In assay [1] (setting [5]), `CN(C)C(=O)Nc1ccc(CNC(=O)c2nn(CC3CC(F)(F)C3)c3c2CN(c2ccc(C(=O)N(C)C)cn2)CC3)cc1` [Example 248, 1-((3,3-difluorocyclobutyl)methyl)-5-(5-(dimethylcarbamoyl)pyridin-2-yl)-N-(4-(3,3-dimethylureido)benzyl)-4,5,6,7-tetrahydro-1H-pyrazolo[4,3-c]pyridine-3-carboxamide] yielded an IC50 of 0.131 µM. Also, the EC50 in assay [2] (setting [4]) was 0.035 µM.
Take `CCn1nc(C(=O)NCc2ccc(NC(=O)N(C)C)cc2)c2c1CCN(c1ccc(-c3nccn3C)cn1)C2` [Example 30, N-(4-(3,3-Dimethylureido)benzyl)-1-ethyl-5-(5-(1-methyl-1H-imidazol-2-yl)pyridin-2-yl)-4,5,6,7-tetrahydro-1H-pyrazolo[4,3-c]pyridine-3-carboxamide]: the 50% inhibitory concentration (IC50) in assay [1] (setting [6]) was determined as 0.087 µM. Besides, the EC50 in assay [2] (setting [7]) was 0.005 µM.
As for `CCC1Cc2c(c(C(=O)NCc3ccc(NC(=O)N(C)C)cc3)nn2C(C)C)CN1c1ccc(C(=O)N(C)C)cn1` (single isomer, unassigned) [Example 267, rel-(R or S)-5-(5-(dimethylcarbamoyl)pyridin-2-yl)-N-(4-(3,3-dimethylureido)benzyl)-6-ethyl-1-isopropyl-4,5,6,7-tetrahydro-1H-pyrazolo[4,3-c]pyridine-3-carboxamide], in assay [1] (setting [3]), inhibition was half-maximal at 0.984 µM (IC50). For the same compound, in assay [2] (setting [4]), the concentration giving a half-maximal response (EC50) came to 0.05 µM.
With `CO[C@@H]1CN(C(=O)Nc2ccc(CNC(=O)c3nn(C(C)C)c4c3CN(c3ccc(C(=O)N(C)C)cn3)CC4)cc2)C[C@H]1F` (racemic) [Example 171, rac-5-(5-(dimethylcarbamoyl)pyridin-2-yl)-N-(4-((3R,4R)-3-fluoro-4-methoxypyrrolidine-1-carboxamido)benzyl)-1-isopropyl-4,5,6,7-tetrahydro-1H-pyrazolo[4,3-c]pyridine-3-carboxamide], the midpoint of inhibition in assay [1] (setting [6]), the IC50, lay at 0.057 µM. In addition, the EC50 in assay [2] (setting [7]) is 0.005 µM.
As for `CC(C)n1nc(C(=O)NCc2ccc(NC(=O)N(C)C)cc2)c2c1CCN(c1ccc(N3CC4CC4C3=O)cn1)C2` (stereo not drawn) [Example 91, N-(4-(3,3-dimethylureido)benzyl)-1-isopropyl-5-(5-(2-oxo-3-azabicyclo[3.1.0]hexan-3-yl)pyridin-2-yl)-4,5,6,7-tetrahydro-1H-pyrazolo[4,3-c]pyridine-3-carboxamide], the IC50 in assay [1] (setting [6]) came out at 0.327 µM. Also, in assay [2] (setting [7]), the 50% effective concentration (EC50) came to 0.014 µM.
Regarding `CC(C)n1nc(C(=O)NCc2ccc(NC(=O)N(C)C)cc2)c2c1CCN(c1ccc(CC(=O)N(C)C)cn1)C2` [Example 286, 5-(5-(2-(Dimethylamino)-2-oxoethyl)pyridin-2-yl)-N-(4-(3,3-dimethylureido)benzyl)-1-isopropyl-4,5,6,7-tetrahydro-1H-pyrazolo[4,3-c]pyridine-3-carboxamide], the IC50 in assay [1] (setting [5]) was above 3.06 µM. The EC50 in assay [2] (setting [4]) amounted to 0.663 µM.
As for `CC(C)n1nc(C(=O)NCc2ccc(NC(=O)N3CC(C)(N(C)C)C3)cc2)c2c1CCN(c1ccc(C(=O)N(C)C)cn1)C2` [Example 150, N-(4-(3-(dimethylamino)-3-methylazetidine-1-carboxamido)benzyl)-5-(5-(dimethylcarbamoyl)pyridin-2-yl)-1-isopropyl-4,5,6,7-tetrahydro-1H-pyrazolo[4,3-c]pyridine-3-carboxamide], the IC50 in assay [1] (setting [6]) is 0.07 µM. Further, in assay [2] (setting [7]), the EC50 stood at 0.018 µM.
For the compound `CC(C)n1nc(C(=O)NCc2ccc(NC(=O)NCC3COC3)cc2)c2c1CCN(c1ccc(C(=O)N(C)C)cn1)C2` [Example 181, 5-(5-(dimethylcarbamoyl)pyridin-2-yl)-1-isopropyl-N-(4-(3-(oxetan-3-ylmethyl)ureido)benzyl)-4,5,6,7-tetrahydro-1H-pyrazolo[4,3-c]pyridine-3-carboxamide], in assay [1] (setting [6]), the midpoint of inhibition, the IC50, lay at 0.436 µM. For the same compound, the EC50 in assay [2] (setting [7]) was 0.26 µM.
`CC[C@H]1CCC(=O)N1c1ccc(N2CCc3c(c(C(=O)NCc4ccc(NC(=O)N(C)C)cc4)nn3C(C)C)C2)nc1` [Example 79, (S)-N-(4-(3,3-dimethylureido)benzyl)-5-(5-(2-ethyl-5-oxopyrrolidin-1-yl)pyridin-2-yl)-1-isopropyl-4,5,6,7-tetrahydro-1H-pyrazolo[4,3-c]pyridine-3-carboxamide] displayed an IC50 in assay [1] (setting [6]) of 1.78 µM. In addition, the EC50 in assay [2] (setting [7]) is 0.041 µM.
In assay [1] (setting [5]), `CC(C)n1nc(C(=O)NCc2ccc(C(N)=O)cc2)c2c1[C@@H](C)CN(c1ccc(N3CCCC3=O)cn1)C2` [Example 479, (S)-N-(4-carbamoylbenzyl)-1-isopropyl-7-methyl-5-(5-(2-oxopyrrolidin-1-yl)pyridin-2-yl)-4,5,6,7-tetrahydro-1H-pyrazolo[4,3-c]pyridine-3-carboxamide] returned an IC50 of 0.015 µM. The half-maximal effective concentration (EC50) in assay [2] (setting [4]) was found to be 0.004 µM.
In assay [1] (setting [6]), `CC(C)n1nc(C(=O)NCc2ccc(NC(=O)N3CCC(C)(O)C3)cc2)c2c1CCN(c1ccc(C(=O)N(C)C)cn1)C2` (racemic) [Example 160, rac-(R)-5-(5-(dimethylcarbamoyl)pyridin-2-yl)-N-(4-(3-hydroxy-3-methylpyrrolidine-1-carboxamido)benzyl)-1-isopropyl-4,5,6,7-tetrahydro-1H-pyrazolo[4,3-c]pyridine-3-carboxamide] yielded a half-maximal inhibitory concentration (IC50) of 0.021 µM. In addition, in assay [2] (setting [7]), the concentration for a half-maximal effect (EC50) stood at 0.015 µM.
With `CC(C)n1nc(C(=O)NCc2ccc(NC(=O)N3CCNCC3)cn2)c2c1[C@@H](C)CN(c1ccc(C(=O)N(C)C)cc1)C2` [Example 700, (S)-5-(4-(dimethylcarbamoyl)phenyl)-1-isopropyl-7-methyl-N-((5-(piperazine-1-carboxamido)pyridin-2-yl)methyl)-4,5,6,7-tetrahydro-1H-pyrazolo[4,3-c]pyridine-3-carboxamide], 0.022 µM corresponded to half-maximal inhibition in assay [1] (Homo sapiens, 48 h, human whole blood, 10 ng/mL IL13, 48 hours) (IC50). In addition, the 50% effective concentration (EC50) in assay [2] (setting [4]) was found to be 0.005 µM.
Turning to `CC(C)n1nc(C(=O)NCc2ccc(NC(=O)N3CCN(C)CC3)c(Cl)c2)c2c1[C@@H](C)CN(c1ccc(C(=O)N(C)C)cc1)C2` [Example 717, (S)-N-(3-chloro-4-(4-methylpiperazine-1-carboxamido)benzyl)-5-(4-(dimethylcarbamoyl)phenyl)-1-isopropyl-7-methyl-4,5,6,7-tetrahydro-1H-pyrazolo[4,3-c]pyridine-3-carboxamide], in assay [1] (Homo sapiens, 48 h, human whole blood, IL-13 10 ng/mL), the concentration for half-maximal inhibition (IC50) came to 0.029 µM. The EC50 in assay [2] (setting [4]) amounted to 0.003 µM.
